“And” between values parts separate entries of the source, which are not always exact repeats. Equal entries are not always repeated.
Key:
CYP450 = assay: Effect of CYP450 inhibitors on metabolism of AC, MA and HA in rat liver microsomes; format: in vitro ADME; details: RLMs
Experimental: 1 mg / ML microsome 100 μL, PBS 75 μL and aconitine alkaloids 5 μL (AC, MA and HA: 1 mmol / L) were added. 20 μL NADPH (10 mmol / L) was added to start the reactionand, AC and HA were incubated for 90 min, MA were incubated for 120 min. The reaction was terminated by adding 200 μL glacial acetonitrile, 12 000 r / min at 4°C for 10 min, and 20 μL supernatant was used for HPLC.
Added microsome 100 μL, PBS 75 μL, aconitine alkaloids 5 μL, inhibitors (furatheophylline: 0.2 mmol / L, sulfabendazole: 0.4 mmol / L, quinidine: 0.1 mmol / L, ketoconazole: 0.04 mmol / L) 10 μL. The operation of HPLC was as above. The effect of CYP450 inhibitors on the metabolism of Aconitum alkaloids was calculated. The formula is as follows:
% inhibition = Peak area of X after adding inhibitor / Peak area of X before adding inhibitor × 100%, where X is metabolites of AC, MA and HA.

[1] = Metabolic stability (t1/2, CLint) of AC, MA and HA in RLMs of pretreated rats
[2] = Plasma concentration of AC, MA and HA in rats by LC-MS/MS; format: in vivo, rat; design: Plasma concentration: unit not given here; details: for Plasma concentration: single animals
Experimental: 12 SD rats were randomly divided into Aconitum and Glycyrrhizae combind with Aconitum group, 6 rats in each group, 2 mL / kg was given by gavage respectively.

[3] = AC 90 min, ketoconazole stock 0.04 mmol/L
[4] = MA 120 min, ketoconazole stock 0.04 mmol/L
[5] = RLMs of rats pretreated with Glycyrrhizae 0.33 g/kg
[6] = RLMs of rats pretreated with Glycyrrhizae 1 g/kg
[7] = RLMs of rats pretreated with Glycyrrhizae 3 g/kg
[8] = RLMs of rats pretreated with Phenobarbital 0.08 g/kg

## Cc1nc2c([nH]1)c(=O)n(C)c(=O)n2Cc1ccco1 [furaphylline]
CYP450; stock 0.2 mmol/L
  effect on the metabolism of AC, MA and HA: no significant effect

## CC(=O)N1CCN(c2ccc(OCC3COC(Cn4ccnc4)(c4ccc(Cl)cc4Cl)O3)cc2)CC1 (stereo not shown) [ketoconazole]
CYP450; [3]
  production of AC metabolite A1, difference vs control: -0.2416 ± 0.0644
  production of AC metabolite A2, difference vs control: -0.4708 ± 0.02905
  production of AC metabolite A3, difference vs control: -0.4643 ± 0.06743
CYP450; HA 90 min
  production of HA metabolite H2, difference vs control: -0.4161 ± 0.01634
CYP450; HA 90 min, ketoconazole stock 0.04 mmol/L
  production of HA metabolite H1, difference vs control: -0.4482 ± 0.05543
CYP450; [4]
  production of MA metabolite M1, difference vs control: -0.4085 ± 0.07279
  production of MA metabolite M2, difference vs control: -0.3312 ± 0.06126
  production of MA metabolite M3, difference vs control: -0.3905 ± 0.01824

## COC[C@]12CN(C)[C@@H]3[C@@H]4[C@H](OC)[C@H]1[C@@]3([C@@H](OC)C[C@H]2O)[C@@H]1C[C@@]2(O)[C@H](OC(=O)c3ccccc3)[C@@H]1[C@]4(OC(C)=O)[C@@H](O)[C@@H]2OC [MA, mesaconitine]
[1]; RLMs of Control rats
  CLint: 16.00±0.40 μL/min/mg protein
  t1/2: 2.8887 ± 0.0722 h
[1]; [5]
  CLint: 17.73±0.23 μL/min/mg protein
  t1/2: 2.6055 ± 0.0337 h
[1]; [6]
  CLint: 18.80±0.04 μL/min/mg protein
  t1/2: 2.4582 ± 0.0522 h
[1]; [7]
  CLint: 17.87±0.83 μL/min/mg protein
  t1/2: 2.5895 ± 0.118 h
[1]; [8]
  CLint: 19.60±0.40 μL/min/mg protein
  t1/2: 2.358 ± 0.048 h
[2]; 2 mL/kg by gavage
  plasma concentration with compatibility of Glycyrrhizae and Aconitum vs Aconitum alone: significantly lower
[2]; Aconitum 2 mL/kg gavage, 10 min
  Plasma concentration: 0.104 and 0.259 and 0.0838 and 0.0908 and 0.0264
[2]; Aconitum 2 mL/kg gavage, 20 min
  Plasma concentration: 0.112 and 0.306 and 0.0799 and 0.129 and 0.0672
[2]; Aconitum 2 mL/kg gavage, 30 min
  Plasma concentration: 0.141 (2×) and 0.315 and 0.127 and 0.051
[2]; Aconitum 2 mL/kg gavage, 45 min
  Plasma concentration: 0.131 and 0.358 and 0.138 and 0.0993 and 0.054
[2]; Aconitum 2 mL/kg gavage, 60 min
  Plasma concentration: 0.209 and 0.452 and 0.123 and 0.0971 and 0.0527
[2]; Aconitum 2 mL/kg gavage, 90 min
  Plasma concentration: 0.212 and 0.258 and 0.0872 and 0.0822 and 0.0482
[2]; Aconitum 2 mL/kg gavage, 120 min
  Plasma concentration: 0.151 and 0.279 and 0.0558 and 0.0592 and 0.0337
[2]; Aconitum 2 mL/kg gavage, 240 min
  Plasma concentration: 0.067 and 0.0621 and 0.0139 and 0.0294 and 0.00782
[2]; Aconitum 2 mL/kg gavage, 360 min
  Plasma concentration: 0.0249 and 0.0364 and 0 (2×) and 0.0208
[2]; Aconitum 2 mL/kg gavage, 480 min
  Plasma concentration: 0.00513 and 0 (4×)
[2]; Glycyrrhizae + Aconitum 2 mL/kg gavage, 10 min
  Plasma concentration: 0.0924 and 0.061 and 0.0433 and 0.0157 and 0.04
[2]; Glycyrrhizae + Aconitum 2 mL/kg gavage, 20 min
  Plasma concentration: 0.0183 and 0.062 and 0.0517 and 0.0185 and 0.0482
[2]; Glycyrrhizae + Aconitum 2 mL/kg gavage, 30 min
  Plasma concentration: 0.0382 and 0.0796 and 0.0589 and 0.0258 and 0.0568
[2]; Glycyrrhizae + Aconitum 2 mL/kg gavage, 45 min
  Plasma concentration: 0.0446 and 0.0702 and 0.0601 and 0.0125 and 0.0651
[2]; Glycyrrhizae + Aconitum 2 mL/kg gavage, 60 min
  Plasma concentration: 0.0304 and 0.0692 and 0.0418 and 0.0207 and 0.0668
[2]; Glycyrrhizae + Aconitum 2 mL/kg gavage, 90 min
  Plasma concentration: 0.038 and 0.0469 and 0.0364 and 0.0228 and 0.0572
[2]; Glycyrrhizae + Aconitum 2 mL/kg gavage, 120 min
  Plasma concentration: 0.0276 and 0.0368 and 0.0358 and 0.0326 and 0.0683
[2]; Glycyrrhizae + Aconitum 2 mL/kg gavage, 240 min
  Plasma concentration: 0.00794 and 0.0109 and 0.0106 and 0.00771 and 0.0278
[2]; Glycyrrhizae + Aconitum 2 mL/kg gavage, 360 min
  Plasma concentration: 0.00417 and 0.00296 and 0 and 0.0025 and 0.0106
[2]; Glycyrrhizae + Aconitum 2 mL/kg gavage, 480 min
  Plasma concentration: 0

Source: paper PMC9236245, “Glycyrrhiza uralensis promote the metabolism of toxic components of Aconitum carmichaeli by CYP3A and alleviate the development of chronic heart failure” (PLoS ONE, 2022)
